Values joined by “and” are separate entries in the source; they are usually repeats but may differ in a detail not shown here. Equal entries are not always repeated.
Legend:
HCV/HIV pseudovirions = assay: microbe, parasite or virus in culture; assay type: cell-based, hepatitis C virus; settings: for inhibition of HCV/HIV entry: 100 μg/mL
HBeAg = assay: Anti-HBSAg Assay (Procedure B), HBeAg; assay type: cell-based, hepatitis B virus; set-up: HBeAg Ave: unit not given here
HCV JFH1 = HCV JFH1 infectivity assay (JFH1 Foci Reduction Assay); assay type: cell-based, hepatitis C virus; settings: virus preincubated with compound; Huh 7 cells; 48 hr post infection; RD8, RD16, RD17, RD18 as glucosidase hydrolysis products
HBV DNA = assay: Anti-HBV DNA Assay; assay type: cell-based, hepatitis B virus; settings: for HBV DNA copies/ml: replicates, listed as HP-S2
[1] = test system: hepatitis B surface antigen (HBsAg) production; assay: Anti-HBSAg Assay (Procedure A); assay type: cell-based, hepatitis B virus; settings: 50 μg/ml
Method: (§1) The HBV-producing human hepatoblastoma cell line, Hep G2.2.15 was maintained in DMEM supplemented with 10% fetal bovine serum (FBS), 2 mM glutamine, 100 units/ml penicillin, 100 μg/ml streptomycin and 380 μg/ml gentamicin sulfate (G418) at 37° C. under 5% CO2 in air. The Hep G2 parental cells were grown under identical conditions in MEM with Earle's salts without G418.
(§2) Hep G2.2.15 cells (190 μl) were seeded onto microtiter plates at a concentration of 20×10^4 cells/ml. The cells incubated overnight in medium without G418 after which the compound compositions (10 μl) were added. Five 2-fold serial dilutions of extracts or fractions were tested starting at 200 μg/ml final culture concentration. PBS and 3TC (lamivudine) were included as the negative and positive controls, respectively. The treated cells were incubated at 37° C. for 4 days, after which the hepatitis B surface antigen (HBsAg) production in culture supernatants was assayed. The HBsAg released into the culture medium in the presence or absence of test samples was assayed using the BIO-RAD Genetic Systems HBsAg EIA 3.0 kit (Bio-Rad, Redmond, Wash.). This enzyme immunoassay is based on the capture of HBsAg on monoclonal antibody-coated plates. Four- and twelve-fold dilutions of all culture supernatants collected were assayed in triplicate wells of the EIA plate. The percentage inhibition of HBsAg secretion in the presence of the plant samples was calculated against the negative control (PBS).

Hep G2.2.15 cells = assay: % Cell Viability in Anti-HBSAg Assay (Procedure A); assay type: cell-based, human; settings: 50 μg/ml
Method: as §1, §2

HBsAg = assay: Anti-HBSAg Assay (Procedure B), HBsAg; assay type: cell-based, hepatitis B virus; set-up: HBsAg Ave.: unit not given here
Method: The HBV-producing human hepatoblastoma cell line, Hep G2 2.2.15 is maintained in DMEM supplemented with 10% fetal bovine serum (FBS), 2 mM glutamine, 100 units/ml penicillin, 100 μg/ml streptomycin at 37° C. under 5% CO2 in air.
Samples were dissolved in DMSO at the concentration of 20 mg/mL, then further diluted with DMEM medium to the appropriate concentration.
Hep G2 2.2.15 cells (120 μl) were seeded onto 96-well plates at a concentration of 2×10^5 cells/mL. The cells incubated for 72 h in the medium without G418, after which the test samples (120 μl) were added. Five 3-fold serial dilutions of samples were tested. PBS and 3TC (lamivudine) were included as the negative and positive controls, respectively. The treated cells were incubated at 37° C. for 9 days; with the medium with sample being changed each 3 days, after which the culture supernatant was removed for analysis of both the hepatitis B surface antigen (HBsAg) production and hepatitis B DNA expression.
The HBsAg released into the culture medium in the presence or absence of test material was assayed using the kit manufactured by Shanghai Siic Kehua Biotech Co., Ltd (Shanghai, China). This enzyme immunoassay is based on the capture of HBsAg on monoclonal antibody-coated plates. Four- and twelve-fold dilutions of all culture supernatants collected were assayed in triplicate wells of the kit plate. The percentage inhibition of HBsAg secretion in the presence of the compound was calculated against the negative control (PBS). The IC50 values, the dose that inhibited viruses by 50%, were calculated using non-linear regression analysis (percent survival versus concentration).

SARS = assay type: cell-based; settings: 50 mg·mL; FIG. 4
Ebola = assay type: cell-based; settings: 50 mg·mL; FIG. 4
HIV = assay: anti-HIV HOG.R5 assay; assay type: cell-based; settings: 20 mcg/ml
influenza = influenza virus entry assay; assay type: cell-based; set-up: dose or concentration left out as unconfirmed; settings: FIG. 4
VSVG/HIV pseudovirions = assay: VSVG/HIV pseudoviral entry into HUH7 cells; assay type: cell-based, vesicular stomtatis virus; settings: 100 μg/mL, FIG. 3
Marburg = assay type: cell-based; set-up: dose or concentration left out as unconfirmed; settings: FIG. 4

COC(=O)C1=COC(O)C2C1C(O)C(O)C2(C)O (mixture of isomers) [lamiridosin]
Exp2 (% Inhib) (HCV/HIV pseudovirions; 1 ug/mL): 56.6% | Trial 1 (% Inhib) (HCV/HIV pseudovirions; 1 ug/mL): 70.1% | Exp2 (% Inhib) (HCV/HIV pseudovirions; 5 ug/mL): 68.4% | Trial 1 (% Inhib) (HCV/HIV pseudovirions; 5 ug/mL): 81.2% | Exp2 (% Inhib) (HCV/HIV pseudovirions; 10 ug/mL): 81.8% | Trial 1 (% Inhib) (HCV/HIV pseudovirions; 10 ug/mL): 86.8% | Exp2 (% Inhib) (HCV/HIV pseudovirions; 50 ug/mL): 96.7% | Trial 1 (% Inhib) (HCV/HIV pseudovirions; 50 ug/mL): 96.1% | Exp2 (% Inhib) (HCV/HIV pseudovirions; 100 ug/mL): 99.5% | Trial 1 (% Inhib) (HCV/HIV pseudovirions; 100 ug/mL): 99.5% | inhibition of HCV/HIV entry (HCV/HIV pseudovirions; FIG. 1): approximately 80% | inhibition of HCV/HIV entry (HCV/HIV pseudovirions; FIG. 1, listed as Lamiridosin): ca. 85% | anti-hepatitis C virus activity (in words) (HCV/HIV pseudovirions; FIG. 1): did block HCV viral entry | IC50 in the anti-HCV assay (HCV viral entry) (HCV/HIV pseudovirions; FIG. 2): 0.6 µg/mL | IC50 (HCV/HIV pseudovirions; FIG. 2, read-out: IC50 in the anti-HCV assay (HCV viral entry)): 2310 nM | Imax in the anti-HCV assay (HCV/HIV pseudovirions; FIG. 2 fit): 93.9±3.5% | HBeAg Ave (HBeAg; 9.375 μg/mL): 1.327 | HBeAg Inhibition % (HBeAg; 9.375 μg/mL): 2.7% | HBeAg OD1 (HBeAg; 9.375 μg/mL): 1.455 | HBeAg OD2 (HBeAg; 9.375 μg/mL): 1.416 | HBeAg OD3 (HBeAg; 9.375 μg/mL): 1.109 | HBeAg Ave (HBeAg; 18.75 μg/mL): 1.244 | HBeAg Inhibition % (HBeAg; 18.75 μg/mL): 8.5% | HBeAg OD1 (HBeAg; 18.75 μg/mL): 1.151 | HBeAg OD2 (HBeAg; 18.75 μg/mL): 1.171 | HBeAg OD3 (HBeAg; 18.75 μg/mL): 1.410 | HBeAg Ave (HBeAg; 37.5 μg/mL): 1.195 | HBeAg Inhibition % (HBeAg; 37.5 μg/mL): 12.1% | HBeAg OD1 (HBeAg; 37.5 μg/mL): 1.073 | HBeAg OD2 (HBeAg; 37.5 μg/mL): 1.275 | HBeAg OD3 (HBeAg; 37.5 μg/mL): 1.238 | Estimated IC50 (inhibition of HCV JFH1 infectivity) (HCV JFH1): 20 µg/mL | HBV DNA Average (HBV DNA; 9.37 μg/ml): 9.81 × 10^5 copies/ml | HBV DNA Inhibit (HBV DNA; 9.37 μg/ml): 0.00% | HBV DNA copies/ml (HBV DNA; 9.37 μg/ml): 1.12E+6 copies/ml and 1.01E+06 copies/ml and 1.22E+06 copies/ml | HBV DNA Average (HBV DNA; 18.75 μg/ml): 8.90 × 10^5 copies/ml | HBV DNA Inhibit (HBV DNA; 18.75 μg/ml): 23.90% | HBV DNA copies/ml (HBV DNA; 18.75 μg/ml): 8.22E+05 copies/ml and 8.73E+05 copies/ml and 9.76E+05 copies/ml | HBV DNA Average (HBV DNA; 37.5 μg/ml): 6.49 × 10^5 copies/ml | HBV DNA Inhibit (HBV DNA; 37.5 μg/ml): 44.5% | HBV DNA copies/ml (HBV DNA; 37.5 μg/ml): 5.06E+05 copies/ml and 8.57E+05 copies/ml and 5.85E+05 copies/ml | % Control HBSAg [1]: 100% | % Inhibition [1]: 0% | anti-HBSAg assay activity (in words) ([1]; Table 1): inactive | % Cell Viability (Hep G2.2.15 cells): 100% | HBsAg Ave. (HBsAg; 9.375 μg/mL): 1.152 | HBsAg Inhibition % (HBsAg; 9.375 μg/mL): 0% | HBsAg OD1 (HBsAg; 9.375 μg/mL): 1.080 | HBsAg OD2 (HBsAg; 9.375 μg/mL): 1.220 | HBsAg OD3 (HBsAg; 9.375 μg/mL): 1.157 | HBsAg Ave. (HBsAg; 18.75 μg/mL): 1.140 | HBsAg Inhibition % (HBsAg; 18.75 μg/mL): 0% | HBsAg OD1 (HBsAg; 18.75 μg/mL): 1.208 | HBsAg OD2 (HBsAg; 18.75 μg/mL): 1.105 | HBsAg OD3 (HBsAg; 18.75 μg/mL): 1.107 | HBsAg Ave. (HBsAg; 37.5 μg/mL): 0.765 | HBsAg Inhibition % (HBsAg; 37.5 μg/mL): 29.4% | HBsAg OD1 (HBsAg; 37.5 μg/mL): 0.797 | HBsAg OD2 (HBsAg; 37.5 μg/mL): 0.744 | HBsAg OD3 (HBsAg; 37.5 μg/mL): 0.755 | anti-HBSAg assay activity (in words) (HBsAg; 37.5 μg/ml, Table 2): inactive | activity against SARS virus entry (SARS): inactive | activity against Ebola virus entry (Ebola): inactive | activity against HIV (HOG.R5 assay) (HIV): inactive | activity against influenza virus entry (influenza): inactive | VSVG/HIV pseudoviral entry blocking (VSVG/HIV pseudovirions): does not block | activity against Marburg virus entry (Marburg): inactive

Source: US20080319042A1, “Compositions and methods for treatment of liver disease” (priority 2007, published 2008)
